According to publication PMC10657444, “Design and evaluation of tadpole-like conformational antimicrobial peptides” (Communications Biology, 2023):
Several values for one entry are separate records, joined by “and”; a condition that tells them apart may be missing. Identical values can stand only once. Non-standard residues stand in square brackets, D forms with d. Residues, ends and D or L forms follow the SMILES beside them.

How the values were obtained:
[1] = system: K. pneumoniae ATCC 700603; test: microbe, parasite or virus in culture; assay type: cell-based, Klebsiella pneumoniae
Experimental: MRSA USA 300 and K. pneumoniae ATCC 700603 were employed to assess the development of resistance. From inoculated microtiter panels, an aliquot of the well with the highest concentration permitting growth was taken and back diluted in fresh media to a turbidity of a 0.5 McFarland standard. This suspension was then further diluted and used to inoculate a fresh MIC panel resulting in a final concentration of 5 × 10^6 CFU/mL. Panels were incubated according to CLSI guidelines (M07, 11th edition, 2018), MICs were recorded and the next inoculum was prepared from the well containing the highest concentration of drug that allowed growth in identical fashion as described above.

[2] = system: MRSA USA 300; test: Time-kill assay; assay type: cell-based, Staphylococcus aureus
Experimental: Time-kill assays were done in tubes (in 1.5 mL of LB) and antibiotics at the 1 ×, 2 ×, 4 × and 8 × MIC. Tubes were inoculated (5 × 10^6 CFU/mL) with MRSA USA 300 and K. pneumoniae ATCC 700603 and incubated at 37 °C under shaking. Serial dilutions of the cultures were plated at each desired time point (0, 1, 3, 6, and 24 h), using a multichannel pipette as follows: in line 1 of a 96-well plate, 100 µL of bacterial suspension was added, while 90 µL of 0.9% sterile saline per well was added to the other lines. At selected time points, 100 µL of bacterial suspension was transferred from the time-kill assay plate to the first line. The wells were further diluted 1 in 10 (0.9% saline) for the appropriate number of dilutions and 10 μL of each dilution was spotted in duplicate onto MH agar plates, then incubated overnight at 37°C. The colonies in each spot were counted and used to calculate the number of viable CFU/mL remaining in the original culture by considering the dilution factors.

CC[C@@H](C)[C@@H](NC(=O)[C@@H](Cc1ccccc1)NC(=O)[C@@H](Cc1ccccc1)NC(=O)[C@@H](Cc1ccccc1)NC(=O)[C@H](N)Cc1ccccc1)C(=O)N[C@H](CCCNC(=N)N)C(=O)N[C@H](CCCNC(=N)N)C(=O)N[C@H](CC(C)C)C(=O)N[C@H](Cc1ccccc1)C(=O)N[C@H](CCCNC(=N)N)C(N)=O [RI-HT2] (H-[dF][dF][dF][dF][dI][dR][dR][dL][dF][dR]-NH2; N-terminus assumed)
Concentration (MIC in drug resistance assay) ([1]; K. pneumoniae ATCC 700603, day 0): 6.25 µg/mL | Concentration (MIC in drug resistance assay) ([1]; K. pneumoniae ATCC 700603, day 1): 6.25 µg/mL | Concentration (MIC in drug resistance assay) ([1]; K. pneumoniae ATCC 700603, day 2): 6.25 µg/mL | Concentration (MIC in drug resistance assay) ([1]; K. pneumoniae ATCC 700603, day 3): 6.25 µg/mL | Concentration (MIC in drug resistance assay) ([1]; K. pneumoniae ATCC 700603, day 4): 12.5 µg/mL | Concentration (MIC in drug resistance assay) ([1]; K. pneumoniae ATCC 700603, day 5): 6.25 µg/mL | Concentration (MIC in drug resistance assay) ([1]; K. pneumoniae ATCC 700603, day 6): 6.25 µg/mL | Concentration (MIC in drug resistance assay) ([1]; K. pneumoniae ATCC 700603, day 7): 12.5 µg/mL | Concentration (MIC in drug resistance assay) ([1]; K. pneumoniae ATCC 700603, day 8): 25 µg/mL | Concentration (MIC in drug resistance assay) ([1]; K. pneumoniae ATCC 700603, day 9): 12.5 µg/mL | Concentration (MIC in drug resistance assay) ([1]; K. pneumoniae ATCC 700603, day 10): 12.5 µg/mL | Concentration (MIC in drug resistance assay) ([1]; K. pneumoniae ATCC 700603, day 11): 12.5 µg/mL | Concentration (MIC in drug resistance assay) ([1]; K. pneumoniae ATCC 700603, day 12): 25 µg/mL | Concentration (MIC in drug resistance assay) ([1]; K. pneumoniae ATCC 700603, day 13): 12.5 µg/mL | Concentration (MIC in drug resistance assay) ([1]; K. pneumoniae ATCC 700603, day 14): 25 µg/mL | Concentration (MIC in drug resistance assay) ([1]; K. pneumoniae ATCC 700603, day 15): 25 µg/mL | Concentration (MIC in drug resistance assay) ([1]; K. pneumoniae ATCC 700603, day 16): 12.5 µg/mL | Concentration (MIC in drug resistance assay) ([1]; K. pneumoniae ATCC 700603, day 17): 25 µg/mL | Concentration (MIC in drug resistance assay) ([1]; K. pneumoniae ATCC 700603, day 18): 25 µg/mL | Concentration (MIC in drug resistance assay) ([1]; K. pneumoniae ATCC 700603, day 19): 25 µg/mL | Concentration (MIC in drug resistance assay) ([1]; K. pneumoniae ATCC 700603, day 20): 25 µg/mL | Concentration (MIC in drug resistance assay) ([1]; K. pneumoniae ATCC 700603, day 21): 25 µg/mL | Concentration (MIC in drug resistance assay) ([1]; K. pneumoniae ATCC 700603, day 22): 25 µg/mL | Concentration (MIC in drug resistance assay) ([1]; K. pneumoniae ATCC 700603, day 23): 25 µg/mL | Concentration (MIC in drug resistance assay) ([1]; K. pneumoniae ATCC 700603, day 24): 25 µg/mL | Concentration (MIC in drug resistance assay) ([1]; K. pneumoniae ATCC 700603, day 25): 25 µg/mL | Concentration (MIC in drug resistance assay) ([1]; K. pneumoniae ATCC 700603, day 26): 12.5 µg/mL | Concentration (MIC in drug resistance assay) ([1]; K. pneumoniae ATCC 700603, day 27): 25 µg/mL | Concentration (MIC in drug resistance assay) ([1]; K. pneumoniae ATCC 700603, day 28): 25 µg/mL | Concentration (MIC in drug resistance assay) ([1]; K. pneumoniae ATCC 700603, day 29): 25 µg/mL | Concentration (MIC in drug resistance assay) ([1]; K. pneumoniae ATCC 700603, day 30): 25 µg/mL | Concentration (MIC in drug resistance assay) ([1]; K. pneumoniae ATCC 700603, day 31): 25 µg/mL | Concentration (MIC in drug resistance assay) ([1]; K. pneumoniae ATCC 700603, day 32): 12.5 µg/mL | Concentration (MIC in drug resistance assay) ([1]; K. pneumoniae ATCC 700603, day 33): 25 µg/mL | Concentration (MIC in drug resistance assay) ([1]; K. pneumoniae ATCC 700603, day 34): 12.5 µg/mL | Concentration (MIC in drug resistance assay) ([1]; K. pneumoniae ATCC 700603, day 35): 25 µg/mL | Concentration (MIC in drug resistance assay) ([1]; K. pneumoniae ATCC 700603, day 36): 25 µg/mL | Concentration (MIC in drug resistance assay) ([1]; K. pneumoniae ATCC 700603, day 37): 12.5 µg/mL | Concentration (MIC in drug resistance assay) ([1]; K. pneumoniae ATCC 700603, day 38): 25 µg/mL | Concentration (MIC in drug resistance assay) ([1]; K. pneumoniae ATCC 700603, day 39): 25 µg/mL | Concentration (MIC in drug resistance assay) ([1]; K. pneumoniae ATCC 700603, day 40): 12.5 µg/mL | increase in MIC after 40 passages ([1]; serial passage at sub-MIC): four-fold | viable count, time-kill ([2]; 2 × MIC, 0 h): 17000000 CFU/mL and 16000000 CFU/mL | viable count, time-kill ([2]; 2 × MIC, 1 h): 18000 CFU/mL and 21000 CFU/mL and 20000 CFU/mL | viable count, time-kill ([2]; 2 × MIC, 6 h): 15000 CFU/mL and 12000 CFU/mL and 14000 CFU/mL | time to complete killing ([2]; 4 × MIC): 3 h | viable count, time-kill ([2]; 4 × MIC, 0 h): 17000000 CFU/mL and 16000000 CFU/mL | viable count, time-kill ([2]; 4 × MIC, 1 h): 1300 CFU/mL and 1200 CFU/mL | viable count, time-kill ([2]; 4 × MIC, 3 h): 0 CFU/mL | viable count, time-kill ([2]; 4 × MIC, 6 h): 0 CFU/mL | viable count, time-kill ([2]; 4 × MIC, 24 h): 0 CFU/mL | viable count, time-kill ([2]; 8 × MIC, 0 h): 17000000 CFU/mL and 16000000 CFU/mL | viable count, time-kill ([2]; 8 × MIC, 1 h): 100 CFU/mL and 200 CFU/mL | viable count, time-kill ([2]; 8 × MIC, 3 h): 0 CFU/mL
